In assay [1] the target is T1, porcine gastric H^+/K^+-ATPase (Sus scrofa, UniProt P19156).
T1 construct: prepared from mucous membrane in fresh porcine stomachs by homogenization; from tissue; host or cells: mucous membrane of fresh porcine stomachs (gastric vesicles, Ficoll/sucrose gradient)
As to the kind of experiment: Ion-tight porcine gastric H+/K+-ATPase inhibition. Type of assay: biochemical. As to conditions: ion-tight porcine gastric vesicles, 150 mM KCl, valinomycin, pH 7.4, 37° C., 30 minutes. The protocol: The porcine gastric vesicles for Porcine gastric H^+/K^+-ATPase inhibition assays were prepared from mucous membrane in fresh porcine stomachs by homogenization with a tight-fitted polytetrafluoroethylene (Teflone®) homogenizer in 0.25 M sucrose at 4° C. The crude pellet was removed with centrifugation at 20,000 g for 30 min. Then supernatant was centrifuged at 100,000 g for 30 min. The resulting pellet was re-suspended in 0.25 M sucrose, and then subjected to density gradient centrifugation at 132,000 g for 90 min. The gastric vesicles were collected from interface on 0.25 M sucrose layer containing 7% Ficoll™ PM400(Amersham Biosciences). This procedure was performed in a cold room.
Ion-tight porcine gastric H^+/K^+-ATPase inhibition was measured according to the modified method described in Biochemical Pharmacology, 1988, 37, 2231-2236.
The isolated vesicles were kept in deep-freezer until use. For enzyme assay, vesicles were diluted with 3 mM MgSO4 containing 5 mM Tris (pH 7.4 at 37° C.).
Enzyme reaction was performed incubating 150 mM KCl, 3 mM Na2ATP, 3 mM MgSO4 15 μM valinomycin and 3.0 μg of vesicles for 30 minutes at 37° C. in a final 60 μl of reaction mixture (5 mM Tris, pH 7.4) with or without the test compound. Enzyme reaction was stopped by adding 10% SDS. Released inorganic phosphate from ATP was detected by incubating with mixture of 1 part of 35 mM ammonium molybdate tetrahydrate in 15 mM Zinc acetate hydrate and 4 parts of 10% ascorbic acid (pH 5.0), resulting in phosphomolybdate, which has optical density at 750 nm.

In assay [2] the test system is gastric acid secretion. As to the kind of experiment: Inhibition of gastric acid secretion in the Heidenhain pouch dog. In kind it is in vivo, Beagle dogs. The note with it: histamine-stimulated acid secretion, maximum inhibition relative to control. The method, then:
Male Beagle dogs weighing 7-15 kg with Heidenhain pouch [Heidenhain R: Arch Ges Physiol. 1879, 19: 148-167] were used. The animals were allowed to recover from surgery for at least three weeks before the experiments. The animals were kept at a 12 hour light-dark rhythm, housed singly. They received standard food once daily at 11:00 a.m. and tap water ad libitum, and were fasted overnight prior to the experiment, with free access to water. Gastric juice samples were collected throughout the experiment by gravity drainage every 15 min. Acidity in the gastric juice was measured by titration to the end point of pH 7.0. Acid secretion was stimulated by a continuous intravenous infusion of histamine (80 μg/kg/h). Oral or intravenous bolus administration of the test compounds was done 90 minutes after commencement of the histamine infusion. The acid secretion was monitored after the administration. The activity was evaluated by the maximum inhibition relative to the corresponding control value.

SMILES strings stand for the structures.

T1 sequence (P19156 2-1034 limits assumed): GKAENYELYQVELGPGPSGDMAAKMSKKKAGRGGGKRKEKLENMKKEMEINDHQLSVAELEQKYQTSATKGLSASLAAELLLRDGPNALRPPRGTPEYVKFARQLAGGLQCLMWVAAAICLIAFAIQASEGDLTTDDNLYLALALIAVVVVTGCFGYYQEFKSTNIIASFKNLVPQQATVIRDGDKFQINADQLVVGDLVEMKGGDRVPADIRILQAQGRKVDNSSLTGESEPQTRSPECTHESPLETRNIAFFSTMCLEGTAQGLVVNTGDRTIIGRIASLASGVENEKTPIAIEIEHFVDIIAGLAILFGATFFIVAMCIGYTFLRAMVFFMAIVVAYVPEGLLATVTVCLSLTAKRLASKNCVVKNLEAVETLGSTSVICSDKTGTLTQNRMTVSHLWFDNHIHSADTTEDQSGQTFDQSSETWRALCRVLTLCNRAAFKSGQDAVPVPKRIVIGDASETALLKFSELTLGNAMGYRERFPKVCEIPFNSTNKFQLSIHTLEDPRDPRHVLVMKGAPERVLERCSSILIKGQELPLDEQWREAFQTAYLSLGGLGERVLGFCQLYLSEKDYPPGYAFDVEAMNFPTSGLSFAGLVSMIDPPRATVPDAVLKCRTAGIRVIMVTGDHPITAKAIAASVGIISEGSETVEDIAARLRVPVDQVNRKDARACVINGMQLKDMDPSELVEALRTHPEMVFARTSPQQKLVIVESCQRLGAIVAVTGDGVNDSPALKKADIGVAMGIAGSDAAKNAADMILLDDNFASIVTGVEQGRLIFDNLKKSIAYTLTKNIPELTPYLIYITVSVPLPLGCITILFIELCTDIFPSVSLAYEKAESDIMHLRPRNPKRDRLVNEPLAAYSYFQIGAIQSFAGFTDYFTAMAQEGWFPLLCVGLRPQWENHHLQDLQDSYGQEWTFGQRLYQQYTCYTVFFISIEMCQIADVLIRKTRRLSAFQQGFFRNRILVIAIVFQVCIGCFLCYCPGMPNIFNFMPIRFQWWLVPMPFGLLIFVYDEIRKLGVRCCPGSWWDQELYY
T1 sequence (P18434 whole entry partner): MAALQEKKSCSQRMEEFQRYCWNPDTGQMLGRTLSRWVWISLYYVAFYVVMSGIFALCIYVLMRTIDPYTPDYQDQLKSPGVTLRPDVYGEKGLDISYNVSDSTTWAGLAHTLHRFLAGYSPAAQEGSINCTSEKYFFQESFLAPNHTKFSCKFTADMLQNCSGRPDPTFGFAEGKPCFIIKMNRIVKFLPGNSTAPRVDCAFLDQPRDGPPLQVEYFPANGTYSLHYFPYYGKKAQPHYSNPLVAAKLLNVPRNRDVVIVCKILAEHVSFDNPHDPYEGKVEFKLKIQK

`Cc1nc2c(OC3CCOc4cccc(F)c43)cc(C(=O)N(C)C)cc2[nH]1` (single isomer, unassigned; (-)) [Example 10, (−)-4-[(5-Fluoro-3,4-dihydro-2H-chromen-4-yl)oxy]-N,N,2-trimethyl-1H-benzimidazole-6-carboxamide] came in with an IC50 in assay [1] of 140 nM. Consider `Cc1nc2c(O[C@H]3CCOc4cc(F)cc(F)c43)cc(C(=O)N(C)C)cc2[nH]1` (single isomer, unassigned) [Example 2], for which the IC50 in assay [1] is 86 nM. Moreover, the “inhibitory activity (gastric acid secretion)” value in assay [2] is reported as “good inhibitory activity”. As for `CCN(C)C(=O)c1cc(O[C@H]2CCOc3cc(F)cc(F)c32)c2nc(C)[nH]c2c1` [Example 23, (−)-4-[(5,7-Difluoro-3,4-dihydro-2H-chromen-4-yl)oxy]-N-ethyl-N,2-dimethyl-1H-benzimidazole-6-carboxamide], the half-maximal inhibitory concentration (IC50) in assay [1] turned out to be 110 nM. The same measure, in the same setting: the value for `Cc1nc2c(OC3CCOc4cc(F)cc(F)c43)cc(C(=O)N3CCC3)cc2[nH]1` (single isomer, unassigned; (-)) [Example 22, (−)-6-(Azetidin-1-ylcarbonyl)-4-[(5,7-difluoro-3,4-dihydro-2H-chromen-4-yl)oxy]-2-methyl-1H-benzimidazole] was 570 nM.

Compound `Cc1nc2c(OC3CCOc4ccccc43)cc(C(=O)N(C)C)cc2[nH]1` (centres unmarked) [Example 12, 4-(3,4-Dihydro-2H-chromen-4-yloxy)-N,N,2-tri methyl-1H-benzimidazole-6-carboxamide] registered a concentration for half-maximal inhibition (IC50) in assay [1] of 230 nM. In turn, `Cc1nc2c(OC3CCSc4ccccc43)cc(C(=O)N(C)C)cc2[nH]1` (centres unmarked) [Example 25, 4-(3,4-Dihydro-2H-thiochromen-4-yloxy)-N,N,2-trimethyl-1H-benzimidazole-6-carboxamide] registered an IC50 in assay [1] of 160 nM. Same read-out and setting: the value for `Cc1nc2c(OC3CCOc4cc(F)cc(F)c43)cc(C(=O)N3CCCC3)cc2[nH]1` (single isomer, unassigned; (-)) [Example 6, (−)-4-[(5,7-Difluoro-3,4-dihydro-2H-chromen-4-yl)oxy]-2-methyl-6-(pyrrolidin-1-ylcarbonyl)-1H-benzimidazole] was 30 nM. In assay [1], `Cc1nc2c(OC3CCOc4cccc(C)c43)cc(C(=O)N(C)C)cc2[nH]1` (centres unmarked) [Example 16, N,N,2-Trimethyl-4-[(5-methyl-3,4-dihydro-2H-chromen-4-yl)oxy]-1H-benzimidazole-6-carboxamide] gave an IC50 of 68 nM. On the same count and under the same terms, the value for `Cc1nc2c(OC3CCOc4cc(F)cc(C)c43)cc(C(=O)N(C)C)cc2[nH]1` (centres unmarked) [Example 21, 4-[(7-Fluoro-5-methyl-3,4-dihydro-2H-chromen-4-yl)oxy]-N,N,2-trimethyl-1H-benzimidazole-6-carboxamide] was 82 nM; that for `Cc1nc2c(OC3CCOc4cc(F)cc(F)c43)cc(C(=O)N(C)CCN(C)C)cc2[nH]1` (centres unmarked) [Example 8, 4-[(5,7-Difluoro-3,4-dihydro-2H-chromen-4-yl)oxy]-N-[2-(dimethylamino)ethyl]-N,2-dimethyl-1H-benzimidazole-6-carboxamide] was 610 nM; that for `Cc1nc2c(O[C@@H]3CCOc4cc(F)cc(F)c43)cc(C(=O)N(C)C)cc2[nH]1` (single isomer, unassigned) [Example 3] was 98 nM.

Take `Cc1nc2c(OC3CCOc4cc(F)cc(F)c43)cc(C(=O)N3CCCC3)cc2[nH]1` (racemic) [Example 4, 4-[(5,7-Difluoro-3,4-dihydro-2H-chromen-4-yl)oxy]-2-methyl-6-(pyrrolidin-1-ylcarbonyl)-1H-benzimidazole]: the 50% inhibitory concentration (IC50) in assay [1] was 58 nM. The same measure, in the same setting: the value for `Cc1nc2c(OC3CCOc4cccc(C)c43)cc(C(=O)N3CCCC3)cc2[nH]1` (centres unmarked) [Example 20, 2-Methyl-4-[(5-methyl-3,4-dihydro-2H-chromen-4-yl)oxy]-6-(pyrrolidin-1-ylcarbonyl)-1H-benzimidazole] was 71 nM. Same read-out and setting: then `Cc1nc2c(OC3CCOc4cc(F)cc(F)c43)cc(C(=O)N(C)CCO)cc2[nH]1` (centres unmarked) [Example 7, 4-[(5,7-Difluoro-3,4-dihydro-2H-chromen-4-yl)oxy]-N-(2-hydroxyethyl)-N,2-dimethyl-1H-benzimidazole-6-carboxamide], with 1100 nM; and `CNC(=O)c1cc(OC2CCOc3cccc(C)c32)c2nc(C)[nH]c2c1` (centres unmarked) [Example 19, N,2-Dimethyl-4-[(5-methyl-3,4-dihydro-2H-chromen-4-yl)oxy]-1H-benzimidazole-6-carboxamide], with 240 nM. Same read-out and setting: the value for `Cc1nc2c(O[C@H]3CCOc4cc(F)cc(F)c43)cc(C(=O)N3CCOCC3)cc2[nH]1` [Example 24, (−)-4-[(5,7-Difluoro-3,4-dihydro-2H-chromen-4-yl)oxy]-2-methyl-6-(morpholin-4-ylcarbonyl)-1H-benzimidazole] was 370 nM. The compound `Cc1nc2c(OC3CCOc4cccc(C)c43)cc(C(=O)N(C)C)cc2[nH]1` (single isomer, unassigned; (-)) [Example 17, (−)-N,N,2-Trimethyl-4-[(5-methyl-3,4-dihydro-2H-chromen-4-yl)oxy]-1H-benzimidazole-6-carboxamide] showed an IC50 in assay [1] of 99 nM. Still for that read-out and setting: the value for `Cc1nc2c(OC3CCOc4cccc(F)c43)cc(C(=O)N(C)C)cc2[nH]1` (racemic) [Example 9, 4-[(5-Fluoro-3,4-dihydro-2H-chromen-4-yl)oxy]-N,N,2-trimethyl-1H-benzimidazole-6-carboxamide] was 130 nM; that for `Cc1nc2c(OC3CCOc4cccc(F)c43)cc(C(=O)N(C)C)cc2[nH]1` (single isomer, unassigned; (+)) [Example 11, (+)-4-[(5-Fluoro-3,4-dihydro-2H-chromen-4-yl)oxy]-N,N,2-trimethyl-1H-benzimidazole-6-carboxamide] was 120 nM. On the same count and under the same terms, the value for `Cc1nc2c(OC3CCOc4c(F)ccc(C)c43)cc(C(=O)N(C)C)cc2[nH]1` (centres unmarked) [Example 13, 4-[(8-Fluoro-5-methyl-3,4-dihydro-2H-chromen-4-yl)oxy]-N,N,2-trimethyl-1H-benzimidazole-6-carboxamide] was 130 nM; that for `Cc1nc2c(OC3CCOc4cccc(C)c43)cc(C(=O)N(C)C)cc2[nH]1` (single isomer, unassigned; (+)) [Example 18, (+)-N,N,2-Trimethyl-4-[(5-methyl-3,4-dihydro-2H-chromen-4-yl)oxy]-1H-benzimidazole-6-carboxamide] was 130 nM; that for `Cc1nc2c(OC3CCOc4cc(F)cc(F)c43)cc(C(=O)N3CCCC3)cc2[nH]1` (single isomer, unassigned; (+)) [Example 5, (+)-4-[(5,7-Difluoro-3,4-dihydro-2H-chromen-4-yl)oxy]-2-methyl-6-(pyrrolidin-1-ylcarbonyl)-1H-benzimidazole] was 32 nM. Still for that read-out and setting: then `Cc1nc2c(OC3CCOc4cc(F)cc(F)c43)cc(C(=O)N(C)C)cc2[nH]1` (racemic) [Example 1, 4-[(5,7-Difluoro-3,4-dihydro-2H-chromen-4-yl)oxy]-N,N,2-trimethyl-1H-benzimidazole-6-carboxamide], with 190 nM. As to `Cc1nc2c(OC3CCOc4c(F)ccc(F)c43)cc(C(=O)N(C)C)cc2[nH]1` (centres unmarked) [Example 14, 4-[(5,8-Difluoro-3,4-dihydro-2H-chromen-4-yl)oxy]-N,N,2-trimethyl-1H-benzimidazole-6-carboxamide], in assay [1], half-maximal inhibition (IC50) was put at 220 nM.

In assay [1], `CCc1nc2c(OC3CCOc4cc(F)cc(F)c43)cc(C(=O)N(C)C)cc2[nH]1` (centres unmarked) [Example 15, 4-[(5,7-Difluoro-3,4-dihydro-2H-chromen-4-yl)oxy]-2-ethyl-N,N-dimethyl-1H-benzimidazole-6-carboxamide] had a 50% inhibitory concentration (IC50) of 210 nM.

The IC50 is the concentration needed to halve the response being measured. Low readings indicate greater potency in that assay, high ones weaker potency in that assay.

Source of the values: US7723321B2, “Chromane substituted benzimidazole derivatives” (RaQualia Pharma Inc., priority 2005, dated 2010).
